The test system of the assay is U9-TR. The assay is described as follows: DNA fragmentation in whole cells (release of 3H-labeled DNA fragments, 4 h). Type of assay: cell-based, human. As for the experimental part: DNA fragmentation in whole cells or normal nuclei isolated from U937 or MCF-7 cells was assayed by release of (3H)thymidine-labeled DNA fragments as described in detail previously (Wright et al. (1994) J. Exp. Med. 180, 2113-2123). DNA fragmentation induced by rADF treatment of isolated nuclei for four h was analyzed by agarose electrophoresis as described in detail previously (Wright et al. (1994) supra). In four h assays using isolated nuclei, the buffer was supplemented with an ATP regenerating system (2 mM ATP, 10 mM phosphocreatine, and 50 μg/ml creatine kinase).
Another mechanism whereby cancer cells may resist apoptosis is through overexpression of heat shock (HS) proteins which have been found at high levels in most tumor cell biopsies (Jaattela, et al., 1999, Exp Cell Res 248:30-43). […] We have studied the mechanisms of apoptosis resistance using several variants derived from the U937 cell line. Variants generated by prolonged growth in the presence of TNF (U9-TR) or by nutritional depletion of intracellular NAD content (U9-NAD-) have been described in the literature previously (Wright, et al., 1992, Cancer Immunol Immunother 34:399-406; Wright, et al., 1996b, J. Exp. Med. 183: 463-477). Both of these variants were resistant to apoptosis induced by diverse agents, such as chemotherapeutic drugs, UV light, and TNF.

With `COc1cc([C@@H]2c3cc4c(cc3[C@@H](O[C@@H]3O[C@@H]5CO[C@@H](C)O[C@H]5[C@H](O)[C@H]3O)[C@H]3COC(=O)[C@H]23)OCO4)cc(OC)c1O` [Etoposide, etoposide], the “fold increase of IC50 values in resistant variants” value is reported as above 41 fold.

Values taken from patent US20040191843A1, “Cell-killing molecules and methods of use thereof” (Palo Alto Institute of Molecular Medicine, priority 2003, published 2004).
